Measurements from the Kinase Knowledgebase extract (Sharma et al. 2016).

Each molecule was assayed against MAPK14 (human) (UniProt Q16539) (assay: Inhibition of MAPK14 Kinase Activity).
Chain of MAPK14 (human) (Q16539 whole entry, looked up): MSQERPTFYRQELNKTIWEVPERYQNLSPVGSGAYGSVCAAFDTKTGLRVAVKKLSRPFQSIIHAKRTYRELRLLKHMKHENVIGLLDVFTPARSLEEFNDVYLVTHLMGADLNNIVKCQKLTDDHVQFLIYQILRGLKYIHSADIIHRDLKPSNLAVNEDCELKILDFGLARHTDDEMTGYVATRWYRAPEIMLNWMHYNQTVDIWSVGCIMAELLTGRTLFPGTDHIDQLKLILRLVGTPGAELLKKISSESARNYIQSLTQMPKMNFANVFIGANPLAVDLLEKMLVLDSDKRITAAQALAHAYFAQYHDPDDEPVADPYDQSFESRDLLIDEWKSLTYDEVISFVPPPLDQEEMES

IC50, ≤ 1 µM:
N#Cc1sc2c(ccc(=O)n2-c2ccccc2)c1Nc1cccc(OC(F)(F)F)c1
CCN(CC)C(=O)c1sc2c(ccc(=O)n2-c2ccccc2)c1Nc1ccccc1
N#Cc1sc2c(ccc(=O)n2CC2CC2)c1Nc1ccc(F)c(Cl)c1
CC(C)(O)CNC(=N)c1sc2c(ccc(=O)n2-c2ccccc2)c1Nc1ccc(F)cc1F
CCOC(=O)c1sc2c(ccc(=O)n2CC2CC2)c1Nc1ccc(F)cc1F
CCOC(=O)c1sc2c(ccc(=O)n2-c2ccsc2)c1Nc1ccccc1
CCOC(=O)c1sc2c(ccc(=O)n2-c2ccccc2)c1Nc1cccnc1Cl
O=C(c1sc2c(ccc(=O)n2-c2ccccc2)c1Nc1cccc(Cl)c1)N1CCCC1
N#Cc1sc2c(ccc(=O)n2-c2ccccc2)c1Nc1c(Cl)cccc1Cl
NC(=O)c1sc2c(ccc(=O)n2-c2ccccc2[N+](=O)[O-])c1Nc1ccc(F)cc1F
Cc1cc(Nc2c(C#N)sc3c2ccc(=O)n3C2CC2)ccc1F
CCN(CC)CCNC(=O)c1sc2c(ccc(=O)n2-c2ccccc2)c1Nc1ccccc1
CCOC(=O)c1sc2c(ccc(=O)n2-c2ccccc2)c1Nc1ccc(C#N)cc1
N#Cc1sc2c(ccc(=O)n2-c2ccccc2)c1Nc1cccc(Cl)c1
CCOC(=O)c1sc2c(ccc(=O)n2-c2cccc(C)c2)c1Nc1cccc(C)c1
O=C(NCCN1CCCCC1)c1sc2c(ccc(=O)n2-c2ccccc2)c1Nc1ccc(F)cc1F
NC(=O)c1sc2c(ccc(=O)n2-c2ccccc2)c1Nc1cccc(SC(F)(F)F)c1
NC(=O)c1sc2c(ccc(=O)n2-c2ccccc2)c1Nc1c(Cl)cccc1Cl
CCN(CC)C(=N)c1sc2c(ccc(=O)n2-c2ccccc2)c1Nc1cccc(C)c1
N#Cc1cccc(Nc2c(C(N)=O)sc3c2ccc(=O)n3-c2ccccc2)c1
CCOC(=O)c1sc2c(ccc(=O)n2-c2ccc(C(O)CO)cc2)c1Nc1ccccc1 (stereo unspecified)
CON(C)C(=O)c1sc2c(ccc(=O)n2-c2ccccc2)c1Nc1ccc(F)cc1F
CCOC(=O)c1sc2c(ccc(=O)n2-c2ccc(NS(C)(=O)=O)cc2)c1Nc1ccc(F)cc1F
Cc1cc(Nc2c(C(N)=O)sc3c2ccc(=O)n3C2CC2)ccc1F
Cc1cc(Nc2c(C(N)=O)sc3c2ccc(=O)n3-c2ccccc2Cl)ccc1F
Cc1cc(Nc2c(C(N)=O)sc3c2ccc(=O)n3CC2CC2)ccc1F
CCOC(=O)c1sc2c(ccc(=O)n2-c2ccccc2)c1Nc1cccc(Cl)c1
CCOC(=O)c1sc2c(ccc(=O)n2-c2ccccc2)c1Nc1ccccc1Cl
CCOC(=O)c1sc2c(ccc(=O)n2-c2ccccc2)c1Nc1ccc(F)cc1F
Cc1cc(Nc2c(C#N)sc3c2ccc(=O)n3CC2CC2)ccc1F
NC(=O)c1sc2c(ccc(=O)n2CC2CC2)c1Nc1ccc(F)cc1F
Cc1cccc(Nc2c(C(N)=O)sc3c2ccc(=O)n3-c2ccccc2C)c1
NC(=O)c1sc2c(ccc(=O)n2-c2ccccc2Cl)c1Nc1ccccc1
CCOC(=O)c1sc2c(ccc(=O)n2-c2ccc(SC)cc2)c1Nc1ccccc1C#N
CCOC(=O)c1sc2c(ccc(=O)n2-c2ccccc2)c1Nc1cccc(C#N)c1
O=c1ccc2c(Nc3cccc(Cl)c3)csc2n1-c1ccccc1
CCOC(=O)c1sc2c(ccc(=O)n2-c2ccccc2)c1Nc1ccccc1C#N
CCc1cccc(Nc2c(C#N)sc3c2ccc(=O)n3-c2ccccc2)c1
N#Cc1sc2c(ccc(=O)n2-c2ccccc2)c1Nc1ccccc1
CCOC(=O)c1sc2c(ccc(=O)n2-c2ccccc2)c1Nc1ccccc1OC
CCOC(=O)c1sc2c(ccc(=O)n2-c2ccsc2)c1Nc1ccc(F)cc1F
Cc1cccc(Nc2c(C(=N)N)sc3c2ccc(=O)n3-c2ccccc2)c1
CCOC(=O)c1sc2c(ccc(=O)n2-c2ccc(OCCn3ccnc3C)cc2)c1Nc1ccc(F)cc1F
N#Cc1sc2c(ccc(=O)n2-c2ccc(OC[C@@H](O)CO)cc2)c1Nc1ccc(F)cc1F
CCOC(=O)c1sc2c(ccc(=O)n2-c2ccc3c(ccn3C)c2)c1Nc1ccccc1C#N
Cc1cccc(Nc2c(C(N)=O)sc3c2ccc(=O)n3-c2ccc(S(C)(=O)=O)cc2)c1
CC(=O)c1sc2c(ccc(=O)n2-c2ccccc2)c1Nc1ccccc1
CCOC(=O)c1sc2c(c(C)cc(=O)n2-c2ccccc2)c1Nc1ccccc1
Cc1cccc(Nc2c(C(N)=O)sc3c2ccc(=O)n3-c2ccccc2Cl)c1
CCOC(=O)c1sc2c(ccc(=O)n2-c2ccc(N(C)C)cc2)c1Nc1ccccc1
Cc1cccc(Nc2c(C(N)=O)sc3c2ccc(=O)n3-c2ccccc2)n1
CCOC(=O)c1sc2c(ccc(=O)n2-c2ccc3c(ccn3S(C)(=O)=O)c2)c1Nc1ccccc1C#N
CCOC(=O)c1sc2c(ccc(=O)n2CC2CC2)c1Nc1ccccc1
O=C(c1sc2c(ccc(=O)n2-c2ccccc2)c1Nc1ccc(F)cc1F)N1CCCC1
CCOC(=O)c1sc2c(ccc(=O)n2-c2ccc([S+](C)[O-])cc2)c1Nc1ccccc1 (stereo unspecified)
Cc1ccc(C#N)c(Nc2c(C(N)=O)sc3c2ccc(=O)n3-c2ccccc2)c1
Cc1cccc(Nc2c(C(N)=O)sc3c2ccc(=O)n3-c2ccccc2)c1C#N
CCOC(=O)c1sc2c(ccc(=O)n2-c2ccc(F)cc2)c1Nc1cccc(C)c1C#N
CCN1CCN(C(=O)c2sc3c(ccc(=O)n3-c3ccccc3)c2Nc2ccccc2)CC1
CCOC(=O)c1sc2c(ccc(=O)n2-c2ccc(F)cc2)c1Nc1ccccc1C#N
NC(=O)c1sc2c(ccc(=O)n2CC2CC2)c1Nc1ccc(F)c(Cl)c1
Cc1cc(Nc2c(C#N)sc3c2ccc(=O)n3-c2ccccc2C)ccc1F
CON(C)C(=O)c1sc2c(ccc(=O)n2-c2ccccc2)c1Nc1ccccc1
Cc1cccc(Nc2c(C#N)sc3c2ccc(=O)n3-c2ccccc2Cl)c1
NC(=O)c1sc2c(ccc(=O)n2-c2ccccc2)c1Nc1ccc(F)cc1
N#Cc1sc2c(ccc(=O)n2-c2ccccc2Cl)c1Nc1ccccc1
